Source: US7396837B2, “Antitumoral analogs of lamellarins” (Pharma Mar, S.A.U., priority 2002, dated 2008)

Key:
Assay type in all cases: cell-based
[1] = system: HT-29; assay: SRB colorimetric cell growth inhibition assay, HT-29; settings: Homo sapiens, HT-29, HT-29
Outline: (§1)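 Quantitation uses the sulforhodamine B reaction on cells exposed to sample for the whole assay period; results (mean ± SD, n = 3 wells) yield GI, TGI and LC.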

[2] = system: K-562; assay: SRB colorimetric cell growth inhibition assay, K-562; settings: Homo sapiens, K562, K-562
Excerpt: (§2) The finality of these assays is to interrupt the growth of an “in vitro” tumor cell culture by means a continued exhibition of the cells to the sample to be testing.
(§3) A colorimetric type of assay, using sulforhodamine B (SRB) reaction has been adapted for a quantitative measurement of cell growth and viability (following the technique described by P. A. Skehan, et al., J. Natl. Cancer Inst. 1990, 82, 1107-1112).
(§4) This form of assay employs 96 well cell culture microplates of 9 mm diameter (T. Mosmann et al., J. of Immunological Methods 1983, 65, 55-63; G. T. Faircloth et al., J. of Tissue and Culture Methods 1988, 11, 201-205).
(§5) Most of the cell lines are obtained from American Type Culture Collection (ATCC) derived from different human cancer types.
(§6) The values for mean +/− SD of data from triplicate wells are calculated. Some parameters for cellular responses can be calculated: GI=growth inhibition, TGI=total growth inhibition (cytostatic effect) and LC=cell killing (cytotoxic effect).

[3] = system: IGROV; assay: SRB colorimetric cell growth inhibition assay, IGROV; settings: Homo sapiens, IGROV
Outline: as §1

[4] = system: PANC-1; assay: SRB colorimetric cell growth inhibition assay, PANC-1; settings: Homo sapiens, PANC-1, PANC-1
Outline: as §1

[5] = system: LNCaP; assay: SRB colorimetric cell growth inhibition assay, LNCaP; settings: Homo sapiens, LNCaP, LN-caP
Excerpt: as §2, §3, §4, §5, §6

[6] = system: SK-BR-3; assay: SRB colorimetric cell growth inhibition assay, SK-BR-3; settings: Homo sapiens, SK-BR-3, SK-BR-3
Outline: as §1

[7] = system: DU-145; assay: SRB colorimetric cell growth inhibition assay, DU-145; settings: Homo sapiens, DU-145, DU-145
Outline: as §1

[8] = system: SK-MEL-28; assay: SRB colorimetric cell growth inhibition assay, SK-MEL-28; settings: Homo sapiens, SK-MEL-28, MEL-28
Outline: as §1

[9] = system: HeLa; assay: SRB colorimetric cell growth inhibition assay, HeLa; settings: Homo sapiens, HeLa
Outline: as §1

[10] = system: A-549; assay: SRB colorimetric cell growth inhibition assay, A-549; settings: Homo sapiens, A549, A-549
Outline: as §1

[11] = system: LoVo-Dox; assay: SRB colorimetric cell growth inhibition assay, LoVo-Dox (MDR); settings: Homo sapiens, LOVO-DOX
Outline: as §1

[12] = system: HeLa-APL; assay: SRB colorimetric cell growth inhibition assay, HeLa-APL (aplidine resistant); settings: Homo sapiens, HELA-APL
Outline: as §1

[13] = system: LoVo; assay: SRB colorimetric cell growth inhibition assay, LoVo; settings: Homo sapiens, LoVo
Outline: as §1

[14] = system: IGROV-ET; assay: SRB colorimetric cell growth inhibition assay, IGROV-ET (ET-743 resistant); settings: Homo sapiens, IGROV-ET
Outline: as §1

**Q.** Which results are given for COc1cc(-c2c3c4cc(OC)c(OC(=O)[C@H](C)NC(=O)[C@H](C)N)cc4oc(=O)c3n3ccc4c(OC(=O)[C@H](C)NC(=O)[C@H](C)N)c(OC)c(OC)cc4c23)ccc1OC(=O)[C@H](C)NC(=O)[C@H](C)N [Compound 5]?
**A.** GI50 ([1]; GI=growth inhibition, read-out: GI50 HT-29): 1700 nM; CC50 ([1]; cell killing (cytotoxic effect), read-out: LC50 HT-29): 6160 nM; IC (TGI) ([1]; total growth inhibition (cytostatic effect), read-out: TGI HT-29): 3240 nM; GI50 ([2]; GI=growth inhibition, read-out: GI50 K-562): 77 nM; CC50 ([2]; cell killing (cytotoxic effect), read-out: LC50 K-562): 7400 nM; IC (TGI) ([2]; total growth inhibition (cytostatic effect), read-out: TGI K-562): 1100 nM; GI50 ([3]; GI=growth inhibition, read-out: GI50 IGROV): 247 nM; CC50 ([3]; cell killing (cytotoxic effect), read-out: LC50 IGROV): 4540 nM; IC (TGI) ([3]; total growth inhibition (cytostatic effect), read-out: TGI IGROV): 855 nM; GI50 ([4]; GI=growth inhibition, read-out: GI50 PANC-1): 418 nM; CC50 ([4]; cell killing (cytotoxic effect), read-out: LC50 PANC-1): 4510 nM; IC (TGI) ([4]; total growth inhibition (cytostatic effect), read-out: TGI PANC-1): 1640 nM; GI50 ([5]; GI=growth inhibition, read-out: GI50 LN-caP): 223 nM; CC50 ([5]; cell killing (cytotoxic effect), read-out: LC50 LN-caP): 3620 nM; IC (TGI) ([5]; total growth inhibition (cytostatic effect), read-out: TGI LN-caP): 1050 nM; GI50 ([6]; GI=growth inhibition, read-out: GI50 SK-BR-3): 241 nM; CC50 ([6]; cell killing (cytotoxic effect), read-out: LC50 SK-BR-3): 3540 nM; IC (TGI) ([6]; total growth inhibition (cytostatic effect), read-out: TGI SK-BR-3): 595 nM; GI50 ([7]; GI=growth inhibition, read-out: GI50 DU-145): 35.6 nM; CC50 ([7]; cell killing (cytotoxic effect), read-out: LC50 DU-145): 575 nM; IC (TGI) ([7]; total growth inhibition (cytostatic effect), read-out: TGI DU-145): 119 nM; GI50 ([8]; GI=growth inhibition, read-out: GI50 MEL-28): 62.9 nM; CC50 ([8]; cell killing (cytotoxic effect), read-out: LC50 MEL-28): 1120 nM; IC (TGI) ([8]; total growth inhibition (cytostatic effect), read-out: TGI MEL-28): 249 nM; GI50 ([9]; GI=growth inhibition, read-out: GI50 HELA): 124 nM; CC50 ([9]; cell killing (cytotoxic effect), read-out: LC50 HELA): 3100 nM; IC (TGI) ([9]; total growth inhibition (cytostatic effect), read-out: TGI HELA): 1120 nM; GI50 ([10]; GI=growth inhibition, read-out: GI50 A-549): 121 nM; CC50 ([10]; cell killing (cytotoxic effect), read-out: LC50 A-549): 4650 nM; IC (TGI) ([10]; total growth inhibition (cytostatic effect), read-out: TGI A-549): 1020 nM; GI50 ([11]; GI=growth inhibition, read-out: GI50 LOVO-DOX): 409 nM; CC50 ([11]; cell killing (cytotoxic effect), read-out: LC50 LOVO-DOX): 3400 nM; IC (TGI) ([11]; total growth inhibition (cytostatic effect), read-out: TGI LOVO-DOX): 1100 nM; GI50 ([12]; GI=growth inhibition, read-out: GI50 HELA-APL): 310 nM; CC50 ([12]; cell killing (cytotoxic effect), read-out: LC50 HELA-APL): 5550 nM; IC (TGI) ([12]; total growth inhibition (cytostatic effect), read-out: TGI HELA-APL): 1710 nM; GI50 ([13]; GI=growth inhibition, read-out: GI50 LOVO): 345 nM; CC50 ([13]; cell killing (cytotoxic effect), read-out: LC50 LOVO): 4140 nM; IC (TGI) ([13]; total growth inhibition (cytostatic effect), read-out: TGI LOVO): 1060 nM; GI50 ([14]; GI=growth inhibition, read-out: GI50 IGROV-ET): 212 nM; CC50 ([14]; cell killing (cytotoxic effect), read-out: LC50 IGROV-ET): 6090 nM; IC (TGI) ([14]; total growth inhibition (cytostatic effect), read-out: TGI IGROV-ET): 1060 nM
